Laboratory results as given in patent US20250092419A1, “SYNTHETIC TARGETERS OF UBIQUITINATION AND DEGRADATION (STUDS) AS EFFECTORS FOR FEEDBACK CONTROL IN MAMMALIAN CELLS” (The Regents of the University of California, priority 2022, published 2025).
Where a SMILES comes first, the peptide text is derived from it. The star is where a group is joined. Cbz = O=C(OCc1ccccc1)*

Columns and labels:
[1] = system: proteasomal and lysosomal degradation pathways; assay: Inhibitor assays: rescue of GFP fluorescence in Jurkat T cells expressing STUD and GFP target; type: cell-based; settings: 5 μM MG-132, 1 μM MLN4924 or 100 nM Bafilomycin A1; 37 C for 5 hours; cells expressing functional STUD and GFP target
Protocol: 72 hours after removal of lentivirus, the Jurkat T cells and an untransduced control cell line were treated with either 5 μM of the proteasomal inhibitor MG-132, 1 μM of the cullin ring ligase inhibitor MLN4924, 100 nM of the lysosomal inhibitor Bafilomycin A1, or DMSO vehicle control and incubate at 37 C for 5 hours. Using flow cytometry to measure GFP fluorescence following treatment, it was observed that GFP fluorescence can indeed be rescued with MG-132 and MLN4924 when cells express both a functional STUD and a GFP target relative to DMSO vehicle control.
Inhibitor Assays: 100,000 cells were plated in a 96 well round bottom plate with either 5 μM MG-132 (Sigma-Aldrich #M7449-200UL), 1 μM MLN4924 (Active Biochem #A-1139), 100 nM Bafilomycin A1 (Enzo Life Sciences #BML-CM110-0100), or DMSO vehicle control and incubated at 37 C for 5 hours. After incubation, cells were pelleted by centrifugation at 400×g for 4 minutes. Supernatant was then removed and cells were washed once with 200 μL PBS. Cells were pelleted again (400×g for 4 minutes) and resuspended in flow buffer (PBS+2% FBS) for assay by flow cytometry.

proteasome = assay: MG132 proteasome inhibitor treatment of primary human CD4+ T cells expressing GFP nanobody STUD; type: cell-based; settings: 5 uM MG132, three hours; cells expressing functional nanobody STUD (nanobody(K->R)+Bonger) only
Protocol: The mechanism of how the STUD reduces GFP was explored. Primary human CD4+ T cells expressing the GFP nanobody STUD were fed with the MG132 proteasome inhibitor and the change in fluorescence was measured over time. Cells expressing a functional STUD should display an increase in fluorescence over time as the proteasome inhibitor took effect.
Using proteasome inhibitor to explore cytosolic GFP mechanism: To ascertain the mechanism by which the STUD degrades cytosolic GFP, the cells were inoculated with 5 uM of the proteasome inhibitor MG132 for 1 and 3 hours. Cells were then washed with PBS and analyzed by flow cytometry. Using the same 2-plasmid system as described above, changes in GFP fluorescence relative to controls were measured.

cullin ring ligase = assay: MLN4924 rescue of STUD knockdown of CD19BBz CAR expression in CD8+ primary T cells; type: cell-based, human; settings: 1 μM MLN4924 for 5 hours at 37 C; CD19BBz CAR with STUD
NALM6 target cells = assay: MLN dose response: ON switch CAR, lysis of NALM6 target cells by CD8+ primary human T cells; type: cell-based; settings: MLN4924 1 μM to 0.015625 μM; 72 hours at 37 C; antiCD19BBz CAR fused to SynZip plus memSTUD
Protocol: CD8+ primary human T cells were engineered with an antiCD19BBz CAR fused to a SynZip and a memSTUD that binds the SynZip using the same plasmids outlined in FIG. 14A by lentiviral transduction. As a control, CD8+ primary human T cells were lentivirally transduced with an antiCD19BBz and a SynZip memSTUD which cannot bind the CAR. These engineered cells and an untransduced control were cocultured with NALM6 target cells for 72 hours at 37 C in the presence of MLN4924 ranging from 1 μM to 0.015625 μM and a DMSO vehicle control. After coculture, target cell lysis was assayed by flow cytometry. Specific target cell lysis of each cell line relative to NALM6 cells cultured alone in the same conditions was then calculated.
Co-culture assays: For all assays, T cells and target cells were co-cultured at a 1:1 ratio with cell numbers varying per assay. All assays contained between 10,000 and 50,000 of each cell type. The Countess II Cell Counter (ThermoFisher) was used to determine cell counts for all assays set up. T cells and target cells were mixed in 96-well round bottom tissue culture plates in 200 μL T cell media, and then plates were centrifuged for 1 min at 400×g to initiate interaction of the cells prior to incubation at 37 C.
MLN dose response: 25,000 CD8+ primary human T cells were seeded into 96 well round bottom plates in 100 μL fresh media. […]

CAR-SZ17 fusion = assay: Degradation of CAR-SZ17 fusion in Jurkat cells; type: cell-based; settings: degron directly fused to the CAR
Protocol: The ability of the STUD to degrade a CAR in Jurkat cells was tested by generating a CAR construct with SynZIP17 fused to its C-terminus. However, while these STUDs worked to some extent, none of them were able to completely knockdown CAR expression (see FIG. 8).

GFP-SZ17 [GFP: P42212] = assay: cell-based or functional assay

In the case of `CO/C1=C\C(C)=C\[C@@H](C)[C@@H](O)[C@@H](C)C/C(C)=C/C=C/[C@H](OC)[C@@H]([C@@H](C)[C@@H](O)[C@H](C)[C@@]2(O)C[C@@H](O)[C@H](C)[C@@H](C(C)C)O2)OC1=O` [Bafilomycin A1], the “GFP fluorescence relative to DMSO vehicle control” value [1] was “No changes to GFP fluorescence”.
`CC(C)C[C@@H](C=O)NC(=O)[C@H](CC(C)C)NC(=O)[C@H](CC(C)C)NC(=O)OCc1ccccc1` [MG-132] (Cbz-Leu-Leu-Leu-aldehyde) was tested, and the “change in GFP fluorescence over time” value (proteasome) was “increase in GFP fluorescence” and the “GFP fluorescence relative to DMSO vehicle control” value [1] was “rescued”.
With `NS(=O)(=O)OC[C@@H]1C[C@@H](n2ccc3c(N[C@H]4CCc5ccccc54)ncnc32)C[C@@H]1O` [MLN4924] the “CAR expression (CAR fluorescence by antibody stain)” value (cullin ring ligase) was “rescue STUD knockdown of CAR expression”, the “GFP fluorescence relative to DMSO vehicle control” value [1] was “rescued” and the “specific target cell lysis” value (NALM6 target cells) was “dose dependent”.
Arg-Arg-Arg-Gly (RRRG) [Bonger degron] was tested, and the “reduction of CAR expression” value (CAR-SZ17 fusion) was “over 90%”.
With “SynZIP18(K->R)-5xGS-RRRG (designed binder)” the median normalized GFP fluorescence (flow cytometry, Jurkat T cells), fold change (GFP-SZ17 [GFP: P42212]) was 42 fold.
